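Compound exposure: 48 hours, 5 concentrations, 96-well plates. Here, GI50 denotes the concentration required for 50% inhibition of growth. TGI: total growth inhibition.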
Legend:
Test in all cases: inhibition of tumour cell growth, NCI panel, 48 h; in the data active = GI50 below about 0.43 µM; inactive = the rest
SK-MEL-28 melanoma = system: SK-MEL-28 melanoma
MCF7 breast = system: MCF7 breast
CAKI-1 renal = system: CAKI-1 renal
SNB-75 CNS = system: SNB-75 CNS
786-0 renal = system: 786-0 renal
NCI/ADR-RES ovarian = system: NCI/ADR-RES ovarian
T-47D breast = system: T-47D breast
NCI-H23 lung = system: NCI-H23 lung
SF-268 CNS = system: SF-268 CNS
U251 CNS = system: U251 CNS
SK-MEL-2 melanoma = system: SK-MEL-2 melanoma
RXF 393 renal = system: RXF 393 renal
UACC-62 melanoma = system: UACC-62 melanoma
HOP-62 NSCLC = system: HOP-62 NSCLC
COLO 205 colon = system: COLO 205 colon
OVCAR-4 ovarian = system: OVCAR-4 ovarian
MALME-3M melanoma = system: MALME-3M melanoma
MDA-MB-435 = system: MDA-MB-435
SW-620 colon = system: SW-620 colon
RPMI-8226 leukemia = system: RPMI-8226 leukemia
IGROV1 ovarian = system: IGROV1 ovarian
SK-MEL-5 melanoma = system: SK-MEL-5 melanoma
K-562 leukemia = system: K-562 leukemia
OVCAR-5 ovarian = system: OVCAR-5 ovarian
SR leukemia = system: SR leukemia
ACHN renal = system: ACHN renal
NCI-H460 lung = system: NCI-H460 lung
SK-OV-3 ovarian = system: SK-OV-3 ovarian
M14 melanoma = system: M14 melanoma
A549 NSCLC = system: A549 NSCLC
KM12 colon = system: KM12 colon
LOX IMVI melanoma = system: LOX IMVI melanoma
HOP-92 NSCLC = system: HOP-92 NSCLC
PC-3 prostate = system: PC-3 prostate
HCC-2998 colon = system: HCC-2998 colon
CCRF-CEM leukemia = system: CCRF-CEM leukemia
SNB-19 CNS = system: SNB-19 CNS
SN12C renal = system: SN12C renal
SF-295 CNS = system: SF-295 CNS
HT29 colon = system: HT29 colon
MDA-MB-231 breast = system: MDA-MB-231 breast
OVCAR-3 ovarian = system: OVCAR-3 ovarian
UACC-257 melanoma = system: UACC-257 melanoma
TK-10 renal = system: TK-10 renal
HL-60(TB) leukemia = system: HL-60(TB) leukemia
OVCAR-8 ovarian = system: OVCAR-8 ovarian
HCT-116 colon = system: HCT-116 colon
HCT-15 colon = system: HCT-15 colon
MOLT-4 leukemia = system: MOLT-4 leukemia
NCI-H522 lung = system: NCI-H522 lung

O=P(O)(Cc1ccccc1)OCC1(O)OCC(O)C(O)C1O (stereo unspecified)
> 10 µM: TGI (SK-MEL-28 melanoma) | TGI (MCF7 breast) | TGI (CAKI-1 renal) | TGI (SNB-75 CNS) | TGI (786-0 renal) | TGI (NCI/ADR-RES ovarian) | TGI (T-47D breast) | TGI (NCI-H23 lung) | TGI (SF-268 CNS) | TGI (U251 CNS) | TGI (SK-MEL-2 melanoma) | TGI (RXF 393 renal) | TGI (UACC-62 melanoma) | TGI (HOP-62 NSCLC) | TGI (COLO 205 colon) | TGI (OVCAR-4 ovarian) | TGI (MALME-3M melanoma) | TGI (MDA-MB-435) | TGI (SW-620 colon) | TGI (RPMI-8226 leukemia) | TGI (IGROV1 ovarian) | TGI (SK-MEL-5 melanoma) | TGI (K-562 leukemia) | TGI (OVCAR-5 ovarian) | TGI (SR leukemia) | TGI (ACHN renal) | TGI (NCI-H460 lung) | TGI (SK-OV-3 ovarian) | TGI (M14 melanoma) | TGI (A549 NSCLC)

CC[N+](CC)(CC)CCCn1c2c(c3ccccc3c1=O)C(=O)c1ccccc1-2
69.1 µM: TGI (PC-3 prostate)
22.8 µM: TGI (OVCAR-8 ovarian)
84.2 µM: TGI (MDA-MB-231 breast)
29.3 µM: TGI (UACC-62 melanoma)
inactive: GI50 (KM12 colon) 4.74 µM | GI50 (LOX IMVI melanoma) 4.63 µM | GI50 (HOP-92 NSCLC) 17.9 µM | GI50 (SK-MEL-28 melanoma) 29.2 µM | GI50 (MCF7 breast) 2890 nM | GI50 (CAKI-1 renal) 3.74 µM | GI50 (PC-3 prostate) 9.13 µM | GI50 (SNB-75 CNS) 80 µM | GI50 (786-0 renal) 7.35 µM | GI50 (NCI/ADR-RES ovarian) 6.5 µM | GI50 (HCC-2998 colon) 5.62 µM | GI50 (CCRF-CEM leukemia) 2990 nM | GI50 (T-47D breast) 98.1 µM | GI50 (NCI-H23 lung) 2310 nM | GI50 (SF-268 CNS) 3.42 µM | GI50 (SNB-19 CNS) 31.6 µM | GI50 (U251 CNS) 4.77 µM | GI50 (SN12C renal) 5.59 µM | GI50 (SF-295 CNS) 7.38 µM | GI50 (HT29 colon) 6.3 µM | GI50 (SK-MEL-2 melanoma) 21.8 µM | GI50 (MDA-MB-231 breast) 17.6 µM | GI50 (OVCAR-3 ovarian) 9.05 µM | GI50 (UACC-62 melanoma) 9.31 µM | GI50 (COLO 205 colon) 23.1 µM | GI50 (OVCAR-4 ovarian) 55.3 µM | GI50 (UACC-257 melanoma) 12.3 µM | GI50 (MDA-MB-435) 18.3 µM | GI50 (TK-10 renal) 1010 nM | GI50 (HL-60(TB) leukemia) 58.6 µM | GI50 (SW-620 colon) 4.24 µM | GI50 (OVCAR-8 ovarian) 3.66 µM | GI50 (RPMI-8226 leukemia) 5.2 µM | GI50 (IGROV1 ovarian) 3.1 µM | GI50 (SK-MEL-5 melanoma) 1430 nM | GI50 (K-562 leukemia) 18.7 µM | GI50 (HCT-116 colon) 1950 nM | GI50 (HCT-15 colon) 4.97 µM | GI50 (OVCAR-5 ovarian) 16.5 µM | GI50 (SR leukemia) 3.56 µM | GI50 (ACHN renal) 3.07 µM | GI50 (NCI-H460 lung) 1850 nM | GI50 (SK-OV-3 ovarian) 52.6 µM | GI50 (M14 melanoma) 3.1 µM | GI50 (MOLT-4 leukemia) 5.58 µM | GI50 (NCI-H522 lung) 4.71 µM | GI50 (A549 NSCLC) 6.27 µM
23.6 µM: TGI (CCRF-CEM leukemia)
4.49 µM: TGI (NCI-H460 lung)
7.4 µM: TGI (MCF7 breast)
26.8 µM: TGI (ACHN renal)
6.42 µM: TGI (NCI-H23 lung)
24.1 µM: TGI (IGROV1 ovarian)
21.4 µM: TGI (NCI-H522 lung)
48.6 µM: TGI (OVCAR-5 ovarian)
24.4 µM: TGI (SF-268 CNS)
50.2 µM: TGI (OVCAR-3 ovarian)
36.3 µM: TGI (UACC-257 melanoma)
53.4 µM: TGI (SK-MEL-2 melanoma)
> 100 µM: TGI (KM12 colon) | TGI (LOX IMVI melanoma) | TGI (HOP-92 NSCLC) | TGI (SK-MEL-28 melanoma) | TGI (SNB-75 CNS) | TGI (T-47D breast) | TGI (SNB-19 CNS) | TGI (U251 CNS) | TGI (SN12C renal) | TGI (HT29 colon) | TGI (COLO 205 colon) | TGI (OVCAR-4 ovarian) | TGI (TK-10 renal) | TGI (HL-60(TB) leukemia) | TGI (SW-620 colon) | TGI (RPMI-8226 leukemia) | TGI (K-562 leukemia) | TGI (HCT-15 colon) | TGI (SR leukemia) | TGI (SK-OV-3 ovarian) | TGI (MOLT-4 leukemia)
active: GI50 (RXF 393 renal) 56 nM
17.6 µM: TGI (RXF 393 renal)
62.6 µM: TGI (MDA-MB-435)
20.9 µM: TGI (HCC-2998 colon)
12.1 µM: TGI (M14 melanoma)
27.2 µM: TGI (NCI/ADR-RES ovarian)
30.9 µM: TGI (CAKI-1 renal)
5.91 µM: TGI (SK-MEL-5 melanoma)
32 µM: TGI (786-0 renal)
35.8 µM: TGI (A549 NSCLC)
57.9 µM: TGI (SF-295 CNS)
9.27 µM: TGI (HCT-116 colon)
